Results published in publication PMC5078989, “Targeted inhibition of the COP9 signalosome for treatment of cancer” (Nature Communications, 2016).

Tested on: panel of cancer cell lines
Assay: Cell viability (CellTiter-Glo) dose-response across cancer cell line panel;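 on EC50: after 72 h compound incubation with CellTiter-Glo ATP readout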
Format: cell-based, human
Conditions: for EC50: Homo sapiens
From the text: Next, we explored the effect of CSN5 inhibition on the viability of cancer cells. To obtain a comprehensive picture, we generated dose–response curves with a CSN5 inhibitor across more than 500 cancer cell lines in a previously described standardized setting[47] (Supplementary Data 1).
A standardized CellTiter-Glo Assay (Promega #G7570) based on the quantification of ATP was applied according to the manufacturer's protocol to measure the amount of viable cells in culture. In brief, cells were seeded into 384-well plates at optimal density for each cell line. After 4 h, compounds were added at different concentrations in growth medium and incubated for another 72 h in a humidifying chamber at 37 °C and 5% CO2. […] EC50 values were calculated from the plot of percentage of inhibition versus inhibitor concentration using the nonlinear regression analysis software Origin 7.5SR6 (OriginLab Corp.).

EC50 (59M, 59M cells): > 30 µM
EC50 (92.1 cells): 14.4 µM
EC50 (639-V, 639-V cells): 23 µM
EC50 (697 cells): 9.5 µM
EC50 (769-P, 769-P cells): 12.8 µM
EC50 (786-0, 786-O cells): 6.26 µM
EC50 (1321-N1, 1321N1 cells): 12.9 µM
EC50 (8505C, 8505C cells): 8.9 µM
EC50 (A4/Fuk cells): 14.5 µM
EC50 (A101D, A101D cells): 9.82 µM
EC50 (A204, A-204 cells): 15.2 µM
EC50 (A498, A-498 cells): 13.7 µM
EC50 (A549, A549 cells): 10.6 µM
EC50 (A673, A-673 cells): 14.4 µM
EC50 (A2058, A2058 cells): 23.5 µM
EC50 (A2780, A2780 cells): 8.53 µM
EC50 (A-375, A-375 cells): 10.4 µM
EC50 (ABC-1, ABC-1 cells): 3.6 µM
EC50 (ACC-MESO-1, ACC-MESO-1 cells): > 30 µM
EC50 (AM-38, AM-38 cells): 11.9 µM
EC50 (AML-193 cells): 18.9 µM
EC50 (AN3-CA, AN3 CA cells): > 30 µM
EC50 (ASPC1, AsPC-1 cells): 13.4 µM
EC50 (BC-3C cells): 8.14 µM
EC50 (BEN cells): 10.5 µM
EC50 (BFTC-909, BFTC-909 cells): 13.2 µM
EC50 (BHY cells): 12.8 µM
EC50 (BICR 6 cells): 9.82 µM
EC50 (BICR 16 cells): 11.1 µM
EC50 (BICR 18 cells): > 30 µM
EC50 (BICR 31 cells): 19.6 µM
EC50 (BT-16, BT-16 cells): 18.3 µM
EC50 (BT-474, BT-474 cells): 11.4 µM
EC50 (BT-549, BT-549 cells): 19.4 µM
EC50 (C3A, C3A cells): 9.64 µM
EC50 (CAKI-2, Caki-2 cells): 11.3 µM
EC50 (CAL-12T, CAL-12T cells): 8.27 µM
EC50 (CAL-27, CAL 27 cells): 12 µM
EC50 (CAL-29 cells): 11.8 µM
EC50 (CAL-85-1, CAL-85-1 cells): 18.6 µM
EC50 (CAL-120, CAL-120 cells): 9.09 µM
EC50 (CAL-148, CAL-148 cells): 9.65 µM
EC50 (CAMA-1, CAMA-1 cells): 10.9 µM
EC50 (CAPAN-1, Capan-1 cells): 7.41 µM
EC50 (CCRF-HSB-2, CCRF-HSB-2 cells): 4.36 µM
EC50 (CEM/C1, CEMC1 cells): 6.88 µM
EC50 (CFPAC-1, CFPAC-1 cells): 11.4 µM
EC50 (CL-14 cells): 11.1 µM
EC50 (CL-34 cells): 11.1 µM
EC50 (CMK, CMK cells): 8.18 µM
EC50 (CMK-86, CMK-86 cells): 7.36 µM
EC50 (COLO 201, COLO 201 cells): 12.6 µM
EC50 (COLO 205, COLO 205 cells): 11.6 µM
EC50 (COLO 320, COLO-320 cells): 8.29 µM
EC50 (COLO 699, COLO-699 cells): 10.1 µM
EC50 (COLO 704, COLO-704 cells): 12.6 µM
EC50 (COLO-678, COLO-678 cells): 16.6 µM
EC50 (COLO-679, COLO-679 cells): 13.6 µM
EC50 (COLO-741, COLO 741 cells): 27.1 µM
EC50 (COLO-829, COLO 829 cells): 11.6 µM
EC50 (COR-L23, COR-L23 cells): 8.42 µM
EC50 (COR-L105, COR-L105 cells): 13.1 µM
EC50 (COV362, COV362 cells): 10.6 µM
EC50 (CW-2, CW-2 cells): 9.62 µM
EC50 (Calu-6, Calu-6 cells): 9.62 µM
EC50 (ChaGo-K-1, ChaGo-K-1 cells): 12.7 µM
EC50 (Ci-1, CI-1 cells): 2.87 µM
EC50 (DB, DB cells): 8.52 µM
EC50 (DLD-1, DLD-1 cells): > 30 µM
EC50 (DMS-53, DMS 53 cells): 17.9 µM
EC50 (DMS-273, DMS 273 cells): 9.95 µM
EC50 (DND41, DND-41 cells): 12.6 µM
EC50 (DU-4475, DU4475 cells): 14.8 µM
EC50 (EBC-1, EBC-1 cells): 17.8 µM
EC50 (EFM-19, EFM-19 cells): 13.1 µM
EC50 (EFM-192A, EFM-192A cells): 6.13 µM
EC50 (EOL1, EOL-1 cells): 3.43 µM
EC50 (FaDu, FaDu cells): 10.2 µM
EC50 (Fu97, FU97 cells): 8.56 µM
EC50 (G-401, G-401 cells): 7.91 µM
EC50 (G-402, G-402 cells): 11.3 µM
EC50 (GAMG, GAMG cells): > 30 µM
EC50 (GDM-1, GDM-1 cells): 9.32 µM
EC50 (GI-1, GI-1 cells): 15.6 µM
EC50 (GP2d, GP2d cells): > 30 µM
EC50 (HARA cells): 14.2 µM
EC50 (HCC15, HCC-15 cells): 23 µM
EC50 (HCC44, HCC-44 cells): 5.76 µM
EC50 (HCC95, HCC-95 cells): 15 µM
EC50 (HCC827, HCC827 cells): 15.5 µM
EC50 (HCC1143, HCC1143 cells): 11.1 µM
EC50 (HCC1187, HCC1187 cells): 10.7 µM
EC50 (HCC1500, HCC1500 cells): 11.7 µM
EC50 (HCC1588, HCC-1588 cells): 7.61 µM
EC50 (HCC1806, HCC1806 cells): 22.7 µM
EC50 (HCC1954, HCC1954 cells): 15.3 µM
EC50 (HCC-56 cells): 18.5 µM
SMILES: COCc1ccccc1NCc1ccc([C@@H]2[C@H](O)CCCc3cncn32)c(-c2ccccc2Cl)c1 [CSN5i-2e, (5R,6R)-5-(2′-chloro-5-(((2-(methoxymethyl)phenyl)amino)methyl)-[1,1′-biphenyl]-2-yl)-6,7,8,9-tetrahydro-5H-imidazo[1,5-a]azepin-6-ol]
AMAX (59M cells): -44.1889
AMAX (92.1 cells): -96.1867
AMAX (A101D cells): -85.3496
AMAX (A2780 cells): -96.2609
AMAX (A-704 cells): -60.7987
AMAX (ABC-1 cells): -95.9302
AMAX (AM-38 cells): -94.7284
AMAX (AsPC-1 cells): -87.4169
AMAX (BFTC-909 cells): -56.5002
AMAX (BICR 6 cells): -77.6622
AMAX (BICR 16 cells): -89.8558
AMAX (Calu-6 cells): -67.9674
AMAX (DU4475 cells): -97.6355
AMAX (EFM-192A cells): -84.5576
AMAX (FaDu cells): -85.1498
AMAX (GP2d cells): -5.479
AMAX (HARA cells): -90.816
AMAX (HCC1143 cells): -51.336
AMAX (HCC1187 cells): -85.4618
AMAX (HD-MY-Z cells): -75.4546
AMAX (HEC-151 cells): -93.7534
AMAX (HEL cells): -96.2302
AMAX (HL-60 cells): -99.3648
AMAX (HLC-1 cells): -73.0832
AMAX (HLE cells): -72.0117
AMAX (HLF cells): -45.3286
AMAX (HSC-4 cells): -74.8911
AMAX (HT-29 cells): -73.0471
AMAX (HUP-T4 cells): -52.1939
AMAX (Hep3B cells): -93.3733
EC50 (HCC70, HCC70 cells): 13.3 µM
